Data from patent publication US10281476B2, “Methods to identify modulators of RyR calcium channels” (REGENTS OF THE UNIVERSITY OF MINNESOTA, priority 2013, dated 2019).
“Also recorded” adds a separate entry of the source. Where no end group is shown, it is not given here.

How the values were obtained:
intact cardiac myocytes = assay: Spontaneous Ca2+ waves (SCW) in intact cardiac myocytes; type: cell-based, rat
Method: Intact cardiomyocytes were loaded with Fluo-4 AM (5 μmol/L, Molecular Probes) for 15 min in NT solution (in mM): NaCl 140, KCl 4, MgCl2 1, CaCl2 2, glucose 10, HEPES 5, pH 7.4. Fluo-4 AM was excited at 488 nm and emission was recorded using a 500-530 nm bandpass filter. Ca^2+sparks were recorded after field stimulation at 1 Hz, and caffeine (10mmol/L) was rapidly perfused for assessing the SR Ca^2+content. Both Ca^2+sparks and SR Ca^2+content were recorded by using a laser scanning confocal microscope (RADIANCE2000™ MP, Bio-Rad, UK). Data were analyzed using SparkMaster, an automated analysis program that allows rapid and reliable spark analysis (Picht et al., J. Am J Physiol Cell Physiol. 2007;293:C1073-C1081). Spontaneous Ca^2+waves were recorded using a BZ9000 fluorescence digital microscope (Keyence, Japan), after 10 sec from field electric stimulation at 1,2,3,4 and 5 Hz, as described previously (Fukuda et al., Biochem Biophys Res Commun. 2014;448:1-7).

[1] = system: intracellular reactive oxygen species (ROS); assay: Intracellular ROS by H2DCFDA fluorescence; type: cell-based, rat; conditions: 50 μmol/L H2O2, with or without dantrolene pretreatment
Method: Intracellular reactive oxygen species (ROS) formation was measured in rat cardiac myocytes using a fluorescent probe, 5-(and -6)-chloromethyl-2′,7′-dichlorodihydrofluoroscein diacetate (H2DCFDA, 10 μmol/L) (Terentyev et al., Circ Res. 2008; 103:1466-1472). This assay is widely used as a reliable method for the measurement of intracellular ROS such as hydrogen peroxide, hydroxyl radicals, and hydroperoxide. The H2DCFDA dye was excited with the 488 nm and emission was collected at 500-530 nm. The content of free thiols in RyR2 was determined based on the monobromobimane (mBB, Calbiochem) fluorescence intensity, as previously described (Terentyev et al., Circ Res. 2008; 103:1466-1472; Ho et al., J Physiol. 2011; 19:4697-4708). In brief, myocytes were incubated with mBB for 1 hr. Myocytes were then lysed in lysis buffer and loaded on 6% SDS-PAGE gels. The fluorescence emission intensity of the RyR2-bound mBB was measured at 482 nm by exciting at 382 nm. mBB fluorescence was normalized to the RyR2 amount, which was determined using quantitative densitometry of Coomassie Blue-stained gels.
To monitor intracellular ROS level, we used H2DCFDA (10 μmol/L). […] To assess whether dantrolene can attenuate the extent of RyR2 thiol modification in H2O2-treated myocytes, we used a monobromobimane (mBB) fluorescence labeling assay.

RyR2 [2] = biological target: T1, RyR2 (Rattus norvegicus, UniProt B0LPN4); assay: Fluorescent FKBP12.6 binding at the Z-line of permeabilized myocytes; design: These fluorescent proteins were added to saponin-permeabilized myocytes with or without pre-equilibration with saturating DPc10 concentration; endogenous in cells; host or cells: saponin-permeabilized rat ventricular myocytes
Method: These fluorescent proteins were added to saponin-permeabilized myocytes with or without pre-equilibration with saturating DPc10 concentration. […] We also did this with high [CaM] (500 nmol/L) that saturates RyR2 with CaM under control conditions (without DPc10; FIG. 17C). […] To test whether DPc10 and CaM bind at the same or nearby RyR2 sites, we measured FRET between CaM and DPc10.
FKBP12.6 can bind to and stabilize RyR2 channel gating, but details are controversial (Bers et al., Circ Res. 2012; 110:796-799). We measured the effect of H2O2 on FKBP12.6-RyR2 binding affinity in saponin-permeabilized myocytes using F-FKBP (Yang et al., Circ Res. 2014; 114:295-306; Cornea et al., Proc Natl Acad Sci USA. 2009; 106:6128-6133; Guo et al., Circ Res. 2010; 106:1743-1752; Guo et al., Biophys J. 2011; 101:2170-2177; Cornea et al., J Biol Chem. 2010; 285:19219-19226). […] We used 1 nmol/L F-FKBP (the its Kd) (Guo et al., Circ Res. 2010; 106:1743-1752), because at half-saturation it would be very sensitive to either an increase or decrease in RyR2 binding.

RyR2 [3] = biological target: T1, RyR2; assay: HF647-DPc10 wash-in kinetics by FRET from F-FKBP (donor quench) in permeabilized myocytes; type: binding; design: These fluorescent proteins were added to saponin-permeabilized myocytes with or without pre-equilibration with saturating DPc10 concentration; endogenous in cells; host or cells: saponin-permeabilized rat ventricular myocytes; conditions: for effect on rate of HF647-DPc10 binding (τwash-in): H2O2 50 μmol/L pre-incubation, dantrolene 1 μmol/L in H2O2-treated myocytes
Method: The FRET pair we used in this consisted of ALEXA FLUOR™ 488 (donor) covalently attached to FKBP12.6 (F-FKBP) and HiLyte Fluor™647 (acceptor) covalently attached to DPc10 (F-DPc10).^8 To detect F-DPc10 specifically bound to RyR2, we measured donor fluorescence intensities through a 500-530 nm bandpass filter before and after equilibration with acceptor (donor quenching method). The FRET efficiency (E) was calculated according to: E=1-FDA/FD, Where FD and FDA are the fluorescence intensities of the donor-only and donor-plus-acceptor samples, respectively (Oda et al., Circ Res. 2013;112:487-497). Statistics
Next we tested whether RyR2 oxidation would increase HF647-DPc10 access. Here, we used FRET between F-FKBP as a donor and HF647-DPc10 as an acceptor, to detect DPc10 that specifically binds at RyR2 (Oda et al., Circ Res. 2013; 112:487-497).

T1 sequence (B0LPN4 whole entry): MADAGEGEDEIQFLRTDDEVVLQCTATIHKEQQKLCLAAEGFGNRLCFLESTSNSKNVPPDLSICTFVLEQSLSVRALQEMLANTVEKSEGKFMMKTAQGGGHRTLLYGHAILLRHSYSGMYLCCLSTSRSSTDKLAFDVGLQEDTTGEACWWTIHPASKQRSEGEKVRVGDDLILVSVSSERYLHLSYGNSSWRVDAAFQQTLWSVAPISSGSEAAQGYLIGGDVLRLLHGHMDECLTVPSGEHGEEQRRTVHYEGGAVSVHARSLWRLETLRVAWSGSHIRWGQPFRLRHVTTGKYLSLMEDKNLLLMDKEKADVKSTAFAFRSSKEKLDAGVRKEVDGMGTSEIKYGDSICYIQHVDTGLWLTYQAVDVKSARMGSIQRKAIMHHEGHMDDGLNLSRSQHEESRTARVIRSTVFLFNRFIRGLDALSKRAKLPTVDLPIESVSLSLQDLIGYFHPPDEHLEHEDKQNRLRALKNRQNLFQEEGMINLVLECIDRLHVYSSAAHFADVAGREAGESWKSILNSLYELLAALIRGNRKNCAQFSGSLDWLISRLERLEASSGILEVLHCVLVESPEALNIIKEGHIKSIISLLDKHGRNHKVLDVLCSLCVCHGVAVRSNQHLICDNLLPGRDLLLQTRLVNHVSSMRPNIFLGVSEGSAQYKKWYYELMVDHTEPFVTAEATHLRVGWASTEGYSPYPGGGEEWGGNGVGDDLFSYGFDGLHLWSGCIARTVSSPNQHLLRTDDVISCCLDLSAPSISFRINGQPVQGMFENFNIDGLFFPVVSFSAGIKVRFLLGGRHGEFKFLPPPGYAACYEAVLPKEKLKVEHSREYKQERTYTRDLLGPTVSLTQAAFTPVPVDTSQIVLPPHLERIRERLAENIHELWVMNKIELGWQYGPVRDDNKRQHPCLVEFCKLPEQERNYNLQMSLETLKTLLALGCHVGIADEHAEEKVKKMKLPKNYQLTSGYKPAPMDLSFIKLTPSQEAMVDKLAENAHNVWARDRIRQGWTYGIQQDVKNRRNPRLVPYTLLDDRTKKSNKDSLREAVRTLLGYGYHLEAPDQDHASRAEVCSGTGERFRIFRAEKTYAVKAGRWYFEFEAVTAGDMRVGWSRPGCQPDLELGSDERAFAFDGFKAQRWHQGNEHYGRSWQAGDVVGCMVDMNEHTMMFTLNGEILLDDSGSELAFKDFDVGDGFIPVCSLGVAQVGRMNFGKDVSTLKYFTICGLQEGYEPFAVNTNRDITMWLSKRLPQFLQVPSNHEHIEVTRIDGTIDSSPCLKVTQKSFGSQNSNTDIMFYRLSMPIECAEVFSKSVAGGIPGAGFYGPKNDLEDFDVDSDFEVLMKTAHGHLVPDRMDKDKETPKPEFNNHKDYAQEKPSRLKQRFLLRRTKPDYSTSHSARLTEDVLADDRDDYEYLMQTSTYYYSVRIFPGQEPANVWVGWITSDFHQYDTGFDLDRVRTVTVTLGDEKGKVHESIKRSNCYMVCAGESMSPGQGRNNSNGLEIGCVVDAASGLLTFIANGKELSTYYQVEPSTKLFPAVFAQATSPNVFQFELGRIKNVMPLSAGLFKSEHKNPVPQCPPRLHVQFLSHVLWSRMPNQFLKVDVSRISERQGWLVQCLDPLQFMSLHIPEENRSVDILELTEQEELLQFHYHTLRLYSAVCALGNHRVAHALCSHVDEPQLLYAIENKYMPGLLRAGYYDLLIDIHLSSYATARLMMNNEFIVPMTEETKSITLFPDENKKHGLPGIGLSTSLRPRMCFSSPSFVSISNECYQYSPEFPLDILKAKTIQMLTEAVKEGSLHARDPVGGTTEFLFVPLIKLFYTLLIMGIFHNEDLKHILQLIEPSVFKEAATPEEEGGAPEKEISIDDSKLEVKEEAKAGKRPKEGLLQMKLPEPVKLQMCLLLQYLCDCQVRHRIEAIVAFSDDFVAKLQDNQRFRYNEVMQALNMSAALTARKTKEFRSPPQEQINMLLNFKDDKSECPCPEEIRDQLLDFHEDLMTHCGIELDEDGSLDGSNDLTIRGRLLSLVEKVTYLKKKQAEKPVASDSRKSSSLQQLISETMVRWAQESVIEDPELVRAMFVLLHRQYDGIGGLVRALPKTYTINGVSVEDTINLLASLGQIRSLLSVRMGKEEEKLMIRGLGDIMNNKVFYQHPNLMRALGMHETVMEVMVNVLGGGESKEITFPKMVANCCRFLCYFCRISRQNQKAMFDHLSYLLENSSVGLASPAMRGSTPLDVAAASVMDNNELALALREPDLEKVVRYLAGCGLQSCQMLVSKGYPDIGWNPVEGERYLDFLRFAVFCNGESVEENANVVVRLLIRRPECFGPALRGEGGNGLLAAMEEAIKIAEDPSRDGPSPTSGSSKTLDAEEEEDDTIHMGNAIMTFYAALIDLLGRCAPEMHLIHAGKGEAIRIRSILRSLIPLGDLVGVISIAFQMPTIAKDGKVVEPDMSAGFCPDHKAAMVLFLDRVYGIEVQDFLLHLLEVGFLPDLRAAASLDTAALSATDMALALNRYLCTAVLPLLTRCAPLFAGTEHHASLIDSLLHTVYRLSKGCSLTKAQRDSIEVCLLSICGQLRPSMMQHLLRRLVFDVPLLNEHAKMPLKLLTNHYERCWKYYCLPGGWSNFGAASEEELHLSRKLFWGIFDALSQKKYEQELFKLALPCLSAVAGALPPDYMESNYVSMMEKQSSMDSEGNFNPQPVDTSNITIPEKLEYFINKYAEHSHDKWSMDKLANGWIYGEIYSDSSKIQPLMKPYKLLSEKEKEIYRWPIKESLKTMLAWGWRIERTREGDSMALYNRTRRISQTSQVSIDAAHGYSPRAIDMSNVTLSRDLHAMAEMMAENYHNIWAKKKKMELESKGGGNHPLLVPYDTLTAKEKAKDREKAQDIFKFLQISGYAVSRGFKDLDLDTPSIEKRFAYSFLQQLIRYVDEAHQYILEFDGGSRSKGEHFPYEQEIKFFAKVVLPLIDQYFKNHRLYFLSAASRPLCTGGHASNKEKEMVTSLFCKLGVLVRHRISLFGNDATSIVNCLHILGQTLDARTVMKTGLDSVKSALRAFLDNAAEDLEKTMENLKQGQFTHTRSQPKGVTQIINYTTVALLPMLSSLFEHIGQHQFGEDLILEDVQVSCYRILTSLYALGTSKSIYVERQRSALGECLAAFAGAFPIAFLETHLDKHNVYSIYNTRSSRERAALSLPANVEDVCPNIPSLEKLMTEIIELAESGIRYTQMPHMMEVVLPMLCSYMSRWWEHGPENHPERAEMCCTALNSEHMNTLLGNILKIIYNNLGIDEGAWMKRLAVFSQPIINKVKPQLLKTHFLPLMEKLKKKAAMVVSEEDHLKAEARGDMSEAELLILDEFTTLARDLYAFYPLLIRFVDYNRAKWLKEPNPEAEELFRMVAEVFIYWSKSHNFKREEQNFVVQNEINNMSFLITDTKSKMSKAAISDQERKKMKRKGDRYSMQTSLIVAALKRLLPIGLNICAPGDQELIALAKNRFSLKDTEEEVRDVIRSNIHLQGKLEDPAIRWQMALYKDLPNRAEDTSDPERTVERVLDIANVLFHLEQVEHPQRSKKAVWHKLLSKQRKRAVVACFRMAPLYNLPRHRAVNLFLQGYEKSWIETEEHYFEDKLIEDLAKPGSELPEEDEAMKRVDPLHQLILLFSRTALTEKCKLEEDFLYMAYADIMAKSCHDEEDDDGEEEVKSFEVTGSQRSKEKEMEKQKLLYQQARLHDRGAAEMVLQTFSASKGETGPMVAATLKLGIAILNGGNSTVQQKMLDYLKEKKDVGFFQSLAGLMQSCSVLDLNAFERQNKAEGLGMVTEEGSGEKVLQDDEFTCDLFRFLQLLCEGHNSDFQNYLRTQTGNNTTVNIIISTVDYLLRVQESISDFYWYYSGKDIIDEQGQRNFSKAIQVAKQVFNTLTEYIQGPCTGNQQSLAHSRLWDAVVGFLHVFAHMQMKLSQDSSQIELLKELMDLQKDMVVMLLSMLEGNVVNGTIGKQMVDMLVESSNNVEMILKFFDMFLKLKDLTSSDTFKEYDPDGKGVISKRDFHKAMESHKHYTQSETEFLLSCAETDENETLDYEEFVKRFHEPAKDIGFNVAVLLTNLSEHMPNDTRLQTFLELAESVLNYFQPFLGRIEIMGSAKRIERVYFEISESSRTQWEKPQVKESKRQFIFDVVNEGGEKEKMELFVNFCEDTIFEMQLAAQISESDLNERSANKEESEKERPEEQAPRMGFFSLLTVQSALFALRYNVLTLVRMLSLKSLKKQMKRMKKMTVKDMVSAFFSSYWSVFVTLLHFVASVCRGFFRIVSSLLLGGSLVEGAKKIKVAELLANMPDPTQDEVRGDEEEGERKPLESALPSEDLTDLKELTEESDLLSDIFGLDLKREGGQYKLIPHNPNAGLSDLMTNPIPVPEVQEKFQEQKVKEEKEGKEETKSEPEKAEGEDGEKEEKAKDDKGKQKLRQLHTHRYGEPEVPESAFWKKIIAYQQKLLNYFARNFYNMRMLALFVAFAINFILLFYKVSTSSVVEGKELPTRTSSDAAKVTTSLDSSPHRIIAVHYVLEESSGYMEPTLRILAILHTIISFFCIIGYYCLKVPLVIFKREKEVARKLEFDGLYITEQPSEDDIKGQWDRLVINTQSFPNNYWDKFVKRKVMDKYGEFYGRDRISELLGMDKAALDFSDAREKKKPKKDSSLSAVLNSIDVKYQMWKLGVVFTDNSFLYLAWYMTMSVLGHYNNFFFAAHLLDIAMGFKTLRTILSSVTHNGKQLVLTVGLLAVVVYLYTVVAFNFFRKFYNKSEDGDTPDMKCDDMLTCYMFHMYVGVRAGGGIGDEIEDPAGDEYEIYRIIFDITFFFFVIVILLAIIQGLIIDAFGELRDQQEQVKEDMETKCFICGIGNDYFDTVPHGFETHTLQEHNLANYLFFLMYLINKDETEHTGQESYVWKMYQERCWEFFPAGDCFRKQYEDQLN
T1 sequence (P68106 with tags, fused parts or gaps T15C/C23A/C77I partner): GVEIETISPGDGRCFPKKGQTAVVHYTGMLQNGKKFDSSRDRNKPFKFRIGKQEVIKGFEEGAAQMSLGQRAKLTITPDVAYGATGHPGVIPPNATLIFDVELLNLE

Row | effect on F-FKBP binding to the RyR2 (RyR2 [2]; 1 nmol/L F-FKBP, H2O2 50 μmol/L, with or without AIP or dantrolene) | effect on rate of HF647-DPc10 binding (τwash-in) (RyR2 [3]) | faster τwash-in of F-DPc10 (RyR2 [3]; after H2O2 treatment) | effect on maximal extent of quench (RyR2 [3]; dantrolene in H2O2-treated myocytes) | Compound | occurrence of SCW vs. control (intact cardiac myocytes; pacing rate increased from 1 to 5 Hz) | intracellular ROS level [1] | effect on H2O2-induced increase in frequency of SCW (intact cardiac myocytes; dantrolene added before H2O2) | effect on FKBP12.6 binding to RyR2 (RyR2 [2]; AF488-FKBP12.6 1 nmol/L, preincubation with 5 μmol/L DPc10)
1 | failed to alter | significantly accelerated | 50% | – | OO [H2O2, hydrogen peroxide] | significantly increased | increased | – | –
2 | – | restored; also recorded: reversed | – | reduced | O=C1CN(/N=C/c2ccc(-c3ccc([N+](=O)[O-])cc3)o2)C(O)=N1 [dantrolene] | – | does not alter | suppressed | –
3 | – | – | – | – | GFCPDHKAAMVLFLDRVYGIEVQDFLLHLLEVGFLP [DPc10] | – | – | – | does not influence
